According to ChEMBL document CHEMBL4428075, “New antiproliferative 7-(4-(N-substituted carbamoylmethyl)piperazin-1-yl) derivatives of ciprofloxacin induce cell cycle arrest at G2/M phase” (Bioorg Med Chem, 2016):

Columns and labels:
A549 [1] = experiment: Induction of cell cycle arrest in human A549 cells assessed as accumulation at G1 phase at 1 uM after 24 hrs by FITC-labeled anti-BrdU antibody/7AAD staining based FACS calibur flow cytometric analysis (reference value: 65.9 %); format: functional
WI-38 = experiment: Antiproliferative activity against human WI38 cells after 24 hrs by BrdU incorporation assay; format: cell-based; details: WI-38, 24 h
A549 [2] = experiment: Induction of cell cycle arrest in human A549 cells assessed as accumulation at G2/M phase at 1 uM after 24 hrs by FITC-labeled anti-BrdU antibody/7AAD staining based FACS calibur flow cytometric analysis (reference value: 12.61 %); format: functional
A549 [3] = experiment: Induction of cell cycle arrest in human A549 cells assessed as accumulation at S phase at 1 uM after 24 hrs by FITC-labeled anti-BrdU antibody/7AAD staining based FACS calibur flow cytometric analysis (reference value: 20.9 %); format: functional
A549 [4] = experiment: Induction of cell cycle arrest in human A549 cells assessed as accumulation at sub G1 phase at 1 uM after 24 hrs by FITC-labeled anti-BrdU antibody/7AAD staining based FACS calibur flow cytometric analysis (reference value: 0.82 %); format: functional
A549 [5] = experiment: Antiproliferative activity against human A549 cells after 24 hrs by BrdU incorporation assay; format: functional, cell-based; details: A549, 24 h
A549 [6] = experiment: Induction of cell cycle arrest in human A549 cells assessed as accumulation at G1 phase at 100 uM after 24 hrs by FITC-labeled anti-BrdU antibody/7AAD staining based FACS calibur flow cytometric analysis (reference value: 65.9 %); format: functional
A549 [7] = experiment: Induction of cell cycle arrest in human A549 cells assessed as accumulation at G2/M phase at 100 uM after 24 hrs by FITC-labeled anti-BrdU antibody/7AAD staining based FACS calibur flow cytometric analysis (reference value: 12.61 %); format: functional
A549 [8] = experiment: Induction of cell cycle arrest in human A549 cells assessed as accumulation at S phase at 100 uM after 24 hrs by FITC-labeled anti-BrdU antibody/7AAD staining based FACS calibur flow cytometric analysis (reference value: 20.9 %); format: functional
A549 [9] = experiment: Induction of cell cycle arrest in human A549 cells assessed as accumulation at sub G1 phase at 100 uM after 24 hrs by FITC-labeled anti-BrdU antibody/7AAD staining based FACS calibur flow cytometric analysis (reference value: 0.82 %); format: functional

Structure (SMILES) | IC50 (A549 [5]) | IC50 (WI-38) | other results
COc1cccc2c1C(=O)c1c(O)c3c(c(O)c1C2=O)C[C@@](O)(C(=O)CO)C[C@@H]3O[C@H]1C[C@H](N)[C@H](O)[C@H](C)O1 [DOXORUBICIN] |  | 12.3 µM | Activity (A549 [1]): 56.5%; Activity (A549 [2]): 22.5%; Activity (A549 [3]): 15.4%; Activity (A549 [4]): 6.75%
Cc1ccc(NC(=O)CN2CCN(c3cc4c(cc3F)c(=O)c(C(=O)O)cn4C3CC3)CC2)cc1 | 23.6 µM | > 100 µM | 
O=C(O)c1cn(C2CC2)c2cc(N3CCNCC3)c(F)cc2c1=O [CIPROFLOXACIN] | > 100 µM | > 100 µM | Activity (A549 [6]): 61%; Activity (A549 [7]): 16.8%; Activity (A549 [8]): 3.8%; Activity (A549 [9]): 9.5%
COc1ccccc1NC(=O)CN1CCN(c2cc3c(cc2F)c(=O)c(C(=O)O)cn3C2CC2)CC1 | > 100 µM | > 100 µM | 

Now from value to molecule, other results behind:

IC50 (A549 [5]) | Structure (SMILES) | IC50 (WI-38) | other results
20.7 µM | O=C(CN1CCN(c2cc3c(cc2F)c(=O)c(C(=O)O)cn3C2CC2)CC1)NC1CCCCC1 | > 100 µM | 
> 100 µM | O=C(CN1CCN(c2cc3c(cc2F)c(=O)c(C(=O)O)cn3C2CC2)CC1)Nc1ccccc1 | > 100 µM | 
